These results are taken from US20150132388A1 (Druggability Technologies Holdings Limited, priority 2013, published 2015).

Series [1] is described as follows: PAMPA permeability. It counts as in vitro ADME. To be noted: both the fed and fasted state simulating conditions. How it is done:
Reference source not found. PAMPA permeability measurements were performed as described by M. Kansi et al. (Journal of medicinal chemistry, 41, (1998) pp 1007) with modifications based on S. Bendels et al (Pharmaceutical research, 23 (2006) pp 2525). Permeability was measured in a 96-well plate assay across an artificial membrane composed of dodecane with 20% soy lecithin supported by a PVDF membrane (Millipore, USA). The receiver compartment was phosphate buffered saline (pH 7.0) supplemented with 1% sodium dodecyl sulfate. The assay was performed at room temperature; incubation time was 1-24 hours. The concentration in the receiver compartment was determined by UV-VIS spectrophotometry (Thermo Scientific Genesys S10).
The ratio of the selected complexation agents and pharmaceutically acceptable excipients (Lutrol F127 and Sodium acetate) was optimized.

Series [2] in a line: Comparative solubility test (apparent solubility, UV-VIS). The class given is physicochemical. As to conditions: distillated water, room temperature, 100 nm syringe filter. As for the experimental part:
The samples were dispersed in distillated water and the resulting dispersions were filtered by 100 nm disposable syringe filter. The active content in the filtrate was measured by UV-Vis spectrophotometry and the solubility was calculated.

The conditions of series [3]: cited from earlier work.
Series [4] has as its system tamoxifen-resistant, as well as estrogen-sensitive human breast cancer (MCF-7) cell lines. To be noted: tamoxifen-resistant and estrogen-sensitive MCF-7 cell lines; cited from earlier work.
Series [5] relates to xenografts of human breast cancer MCF-7 cells. As to conditions: cited from earlier work.
For series [6] the following is noted: immature or ovariectomized mice and rats; cited from earlier work.
The conditions of series [7]: immature rats and ovariectomized monkeys; cited from earlier work.
Setting [8] is: intramuscular injection of 250 mg.

As for “7-alpha-[9-(4,4,5,5,5-penta fluoropentylsulphinyl)nonyl]estra-1,3,5-(10)-triene-3,17 beta-diol [Fulvestrant]”, in series [1], the PAMPA permeability result is reported as “not detectable”. The “Solubility (apparent solubility)” value in series [2] was less than 30 µg/mL. The “Time to maximum plasma concentrations” value in series [3] (250 mg intramuscularly) was “about 7 days”. Besides, in series [3] (in vivo), the “Excretion via the feces” value is “approximately 90%” and the Renal elimination result is “less than 1%”. In series [3] (setting [8]), the Apparent half-life entry is recorded as “about 40 days” and the “Clearance (Mean±SD)” value was 690 ± 226 mL/min. The Bioavailability in series [3] (intramuscular, between study comparisons) is listed as 90-100%. Moreover, in series [3] (once a month administration), the Accumulation is on record as 2-3 fold and the “Time to steady state” value is “about 6 months”. In series [3] (single dose studies, intramuscular), the Terminal half-life entry is given as “about 50 days”. For the same substance, the “Inhibition of cell growth” value in series [4] is on record as “reversible inhibitor of the growth”. Further, the “Establishment of tumors from xenografts” value in series [5] (MCF-7 cells in nude mice) was “delayed the establishment of tumors”. The “Growth of established xenografts” value in series [5] (established MCF-7 xenografts and tamoxifen-resistant breast tumor xenografts) is listed as “inhibited the growth”. In addition, the “Agonist-type effects in uterotropic assays” value in series [6] is listed as “no agonist-type effects”. Besides, the “Effect on the uterotrophic action of estradiol” value in series [7] is listed as “blocked the uterotrophic action of estradiol”.
